In this assay the target is T1, human IL-17AA (Homo sapiens, UniProt Q16552).
T1 construct: host or cells: HEK (human embryonic kidney) cells
T1 sequence (Q16552 24-155) 1: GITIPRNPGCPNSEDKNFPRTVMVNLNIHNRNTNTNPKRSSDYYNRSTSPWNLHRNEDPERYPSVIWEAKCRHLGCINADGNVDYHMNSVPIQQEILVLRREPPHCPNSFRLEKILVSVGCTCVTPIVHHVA
T1 sequence (Q16552 24-155) 2: T1 sequence (Q16552 24-155) 1
Briefly: IL-8 release assay in human epithelial keratinocytes adult (HEKa). It counts as cell-based. The note with it: 3 ng/ml human IL-17AA + 10 ng/ml human TNFalpha, 68-72 h, IL-8 by HTRF, read-out: Rel EC50 L-8 release assay. In outline: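 Adult human keratinocytes in Epilife with HKGS minus hydrocortisone, treated with compound then stimulated with final 3 ng/ml HEK-derived human IL-17AA plus 10 ng/ml TNF-alpha for 68–72 h at 37 °C; TNF-alpha alone defines 100% inhibition. Secreted IL-8 by HTRF; relative IC50 and Emax from four-parameter fits.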
On the technique in general: In TR-FRET formats the signal depends on donor and acceptor labels being close together.

The values below come from patent US20220162191A1, “SMALL MOLECULE MODULATORS OF IL-17” (LEO PHARMA A/S, priority 2019, published 2022).

Bounds are passed on as bounds.

For `Cc1n[nH]c(C)c1-c1ccc(NC(=O)[C@H](Cc2cc(-c3ccnc(N4CCCC5(COC5)C4)n3)ccc2Cl)NC(=O)C2(F)CC2)cc1` [Example 319, N-[(1S)-1-[[2-chloro-5-[2-(2-oxa-8-azaspiro[3.5]nonan-8-yl)pyrimidin-4-yl]phenyl]methyl]-2-[4-(3,5-dimethyl-1H-pyrazol-4-yl)anilino]-2-oxo-ethyl]-1-fluoro-cyclopropanecarboxamide], the 50% effective concentration (EC50) – broadly, the concentration needed to bring the measured effect to its halfway point – is below 100 nM.

In the case of `Cc1n[nH]c(C)c1-c1ccc(NC(=O)[C@@H](NC(=O)C2(F)CC2)[C@@H]2CCc3ccc(-c4cc(C(C)C)ncn4)cc32)cc1` [Example 353, N-[(1S)-2-[4-(3,5-dimethyl-1H-pyrazol-4-yl)anilino]-1-[(1R)-6-(6-isopropylpyrimidin-4-yl)indan-1-yl]-2-oxo-ethyl]-1-fluoro-cyclopropanecarboxamide], the EC50 lay within 100 to 1000 nM.

Turning to `Cc1cc(-c2ccc3c(c2)[C@H]([C@H](NC(=O)C2(F)CC2)C(=O)Nc2ccc(-n4ccnc4C)cc2)CCC3)cn(C(C)C)c1=O` [Example 406, 1-fluoro-N-[(1S)-1-[(1R)-7-(1-isopropyl-5-methyl-6-oxo-3-pyridyl)tetralin-1-yl]-2-[4-(2-methylimidazol-1-yl)anilino]-2-oxo-ethyl]cyclopropanecarboxamide], the EC50 lay within 100 to 1000 nM.

As to `Cc1n[nH]c(C)c1-c1ccc(NC(=O)[C@@H](NC(=O)C2(F)CC2)C(C)c2cc(-c3ccc(=O)n(C(C)C)c3)ccc2Cl)cc1` (stereo partly drawn) [Example 51, N-[(1S)-2-[2-chloro-5-(1-isopropyl-6-oxo-3-pyridyl)phenyl]-1-[[4-(3,5-dimethyl-1H-pyrazol-4-yl)phenyl]carbamoyl]propyl]-1-fluoro-cyclopropanecarboxamide], the EC50 is 100 to 1000 nM.

For the molecule `CC(C)n1cc(-c2ccc3c(c2)[C@H]([C@H](NC(=O)c2ccnn2C)C(=O)Nc2ccc(-c4cncn4C)cc2)CC3)ccc1=O` [Example 3, N-[(1S)-1-[(1R)-6-(1-isopropyl-6-oxo-3-pyridyl)indan-1-yl]-2-[4-(3-methylimidazol-4-yl)anilino]-2-oxo-ethyl]-2-methyl-pyrazole-3-carboxamide], the EC50 was 100 to 1000 nM.

Turning to `Cc1n[nH]c(C)c1-c1ccc(NC(=O)[C@@H](NC(=O)C2(F)CC2)[C@@H]2CCc3ccc(-n4cnc(C(C)C)c4)cc32)cc1` [Example 360, N-[(1S)-2-[4-(3,5-dimethyl-1H-pyrazol-4-yl)anilino]-1-[(1R)-6-(4-isopropylimidazol-1-yl)indan-1-yl]-2-oxo-ethyl]-1-fluoro-cyclopropanecarboxamide], the EC50 lay in the range of 100 to 1000 nM.

For the molecule `Cc1n[nH]c(C)c1-c1ccc(NC(=O)[C@H](Cc2cc(-c3ccnc(N4CC[S+]([O-])CC4)n3)ccc2Cl)NC(=O)C2(F)CC2)cc1` [Example 315, N-[(1S)-1-[[2-chloro-5-[2-(1-oxidothiomorpholin-1-ium-4-yl)pyrimidin-4-yl]phenyl]methyl]-2-[4-(3,5-dimethyl-1H-pyrazol-4-yl)anilino]-2-oxo-ethyl]-1-fluoro-cyclopropanecarboxamide], the EC50 is below 100 nM.

For `Cc1cc(-c2ccc(Cl)c(CC(NC(=O)c3ccnn3C)C(=O)Nc3ccc(-c4nncn4C)cc3)c2)cc(C)c1C#N` (stereo not shown) [Example 199, N-[1-[[2-chloro-5-(4-cyano-3,5-dimethyl-phenyl)phenyl]methyl]-2-[4-(4-methyl-1,2,4-triazol-3-yl)anilino]-2-oxo-ethyl]-2-methyl-pyrazole-3-carboxamide], the EC50 fell in the range of 100 to 1000 nM.

`Cc1n[nH]c(C)c1-c1ccc(NC(=O)[C@@H](NC(=O)C2(F)CC2)[C@@H]2CCc3ccc(-c4ccnc(N5C[C@@H]6C[C@H]5CO6)c4)cc32)cc1` [Example 354, N-[(1S)-2-[4-(3,5-dimethyl-1H-pyrazol-4-yl)anilino]-1-[(1R)-6-[2-[(1S,4S)-2-oxa-5-azabicyclo[2.2.1]heptan-5-yl]-4-pyridyl]indan-1-yl]-2-oxo-ethyl]-1-fluoro-cyclopropanecarboxamide]: the EC50 is below 100 nM.

Turning to `CC(C)n1cc(-c2ccc(Cl)c(CC(NC(=O)c3ccnn3C)C(=O)Nc3ccc(-c4cnnn4C)cc3)c2)ccc1=O` (stereo not shown) [Example 65, N-[1-[[2-chloro-5-(1-isopropyl-6-oxo-3-pyridyl)phenyl]methyl]-2-[4-(3-methyltriazol-4-yl)anilino]-2-oxo-ethyl]-2-methyl-pyrazole-3-carboxamide], the EC50 is above 1000 nM.

In the case of `Cc1n[nH]cc1-c1ccc(NC(=O)C(NC(=O)c2ccnn2C)C(c2ccccc2)c2cccc(-c3ccc(=O)n(C(C)C)c3)c2)cc1` (single isomer, unassigned; diastereomer 4) [Example 238, N-[1-[[3-(1-isopropyl-6-oxo-3-pyridyl)phenyl]-phenyl-methyl]-2-[4-(3-methyl-1H-pyrazol-4-yl)anilino]-2-oxo-ethyl]-2-methyl-pyrazole-3-carboxamide (Diastereomer 4)], the EC50 fell in the range of 100 to 1000 nM.

On to `Cn1cncc1-c1ccc(NC(=O)[C@H](Cc2cc(-c3cccc([C@@H]4CNCCO4)c3)ccc2Cl)NC(=O)c2ccnn2C)cc1` [Example 221, N-[(1S)-1-[[2-chloro-5-[3-[(2R)-morpholin-2-yl]phenyl]phenyl]methyl]-2-[4-(3-methylimidazol-4-yl)anilino]-2-oxo-ethyl]-2-methyl-pyrazole-3-carboxamide], for which the EC50 was 100 to 1000 nM.

Turning to `Cc1cnn(C)c1-c1ccc(NC(=O)[C@@H](NC(=O)C2(F)CC2)[C@@H](c2cccc(-c3cncc(N4C[C@@H]5C[C@H]4CO5)c3)c2)C2CC2)cc1` [Example 347, N-[(1S)-1-[(R)-cyclopropyl-[3-[5-[(1S,4S)-2-oxa-5-azabicyclo[2.2.1]heptan-5-yl]-3-pyridyl]phenyl]methyl]-2-[4-(2,4-dimethylpyrazol-3-yl)anilino]-2-oxo-ethyl]-1-fluoro-cyclopropanecarboxamide], the EC50 was below 100 nM.

Regarding `Cc1cnn(C)c1-c1ccc(NC(=O)[C@H](Cc2cc(-c3ccc(=O)n(C(C)C)c3)ccc2Cl)NC(=O)c2ccno2)cc1` [Example 324, N-[(1S)-1-[[2-chloro-5-(1-isopropyl-6-oxo-3-pyridyl)phenyl]methyl]-2-[4-(2,4-dimethylpyrazol-3-yl)anilino]-2-oxo-ethyl]isoxazole-5-carboxamide], the EC50 lay within 100 to 1000 nM.

For `CC(C)n1cc(-c2ccc(Cl)c(C[C@H](NC(=O)OCc3ccccc3)C(=O)Nc3ccc(-c4nncn4C)cc3)c2)ccc1=O` [Example 87, benzyl N-[(1S)-1-[[2-chloro-5-(1-isopropyl-6-oxo-3-pyridyl)phenyl]methyl]-2-[4-(4-methyl-1,2,4-triazol-3-yl)anilino]-2-oxo-ethyl]carbamate], the EC50 was 100 to 1000 nM.

`Cc1cnn(C)c1-c1ccc(NC(=O)[C@H](Cc2cc(-c3ccc(=O)n(C(C)C)c3)ccc2Cl)NC(=O)c2cn[nH]c2)cc1` [Example 323, N-[(1S)-1-[[2-chloro-5-(1-isopropyl-6-oxo-3-pyridyl)phenyl]methyl]-2-[4-(2,4-dimethylpyrazol-3-yl)anilino]-2-oxo-ethyl]-1H-pyrazole-4-carboxamide]: the concentration for a half-maximal effect (EC50) was in the range of 100 to 1000 nM.

For the molecule `Cc1n[nH]c(C)c1-c1ccc(NC(=O)[C@@H](NC(=O)C2(F)CC2)[C@@H]2CCc3ccc(-c4cnn(C(C)(C)CO)c4)cc32)cc1` [Example 12, N-[(1S)-2-[4-(3,5-dimethyl-1H-pyrazol-4-yl)anilino]-1-[(1R)-6-[1-(2-hydroxy-1,1-dimethyl-ethyl)pyrazol-4-yl]indan-1-yl]-2-oxo-ethyl]-1-fluoro-cyclopropanecarboxamide], the EC50 is below 100 nM.

For the molecule `Cc1cnn(C)c1-c1ccc(NC(=O)[C@@H](NC(=O)C2(F)CC2)[C@@H](c2cccc(-c3cncc(N4C[C@@H]5C[C@H]4CO5)n3)c2)C2CC2)cc1` [Example 350, N-[(1S)-1-[(R)-cyclopropyl-[3-[6-[(1S,4S)-2-oxa-5-azabicyclo[2.2.1]heptan-5-yl]pyrazin-2-yl]phenyl]methyl]-2-[4-(2,4-dimethylpyrazol-3-yl)anilino]-2-oxo-ethyl]-1-fluoro-cyclopropanecarboxamide], the concentration giving a half-maximal response (EC50) is below 100 nM.

As for `Cc1nccn1-c1ccc(NC(=O)[C@@H](NC(=O)c2ccnn2C)[C@@H]2CCCc3ccc(-c4ccnc(N5C[C@@H]6C[C@H]5CO6)c4)cc32)cc1` [Example 402, 2-methyl-N-[(1S)-2-[4-(2-methylimidazol-1-yl)anilino]-1-[(1R)-7-[2-[(1S,4S)-2-oxa-5-azabicyclo[2.2.1]heptan-5-yl]-4-pyridyl]tetralin-1-yl]-2-oxo-ethyl]pyrazole-3-carboxamide], the EC50 was below 100 nM.

For the molecule `Cc1nocc1C(=O)N[C@@H](Cc1cc(-c2ccc(=O)n(C(C)C)c2)ccc1Cl)C(=O)Nc1ccc(-c2ccnn2C)c(O)c1` [Example 71, N-[(1S)-1-[[2-chloro-5-(1-isopropyl-6-oxo-3-pyridyl)phenyl]methyl]-2-[3-hydroxy-4-(2-methylpyrazol-3-yl)anilino]-2-oxo-ethyl]-3-methyl-isoxazole-4-carboxamide], the concentration giving a half-maximal response (EC50) is below 100 nM.

Consider `CC(C)n1cc(-c2ccc(Cl)c(C[C@H](NC(=O)OC(C)(C)C)C(=O)Nc3ccc(-c4cncn4C)c(F)c3)c2)ccc1=O` [Example 134, tert-butyl N-[(1S)-1-[[2-chloro-5-(1-isopropyl-6-oxo-3-pyridyl)phenyl]methyl]-2-[3-fluoro-4-(3-methylimidazol-4-yl)anilino]-2-oxo-ethyl]carbamate], for which the EC50 lay in the range of 100 to 1000 nM.

For the molecule `CN(c1cc(-c2ccc(Cl)c(CC(NC(=O)c3ccnn3C)C(=O)Nc3ccc(-c4cncn4C)cc3)c2)ccn1)C1CC1` (stereo not shown) [Example 150, N-[1-[[2-chloro-5-[2-[cyclopropyl(methyl)amino]-4-pyridyl]phenyl]methyl]-2-[4-(3-methylimidazol-4-yl)anilino]-2-oxo-ethyl]-2-methyl-pyrazole-3-carboxamide], the EC50 is below 100 nM.
